According to patent publication US20140066362A1, “METHOD FOR TREATING INFECTIONS BY TARGETING MICROBIAL H2S-PRODUCING ENZYMES” (NEW YORK UNIVERSITY, priority 2011, published 2014):

How the values were obtained:
Assay type in all cases: cell-based
E. faecium A2373 = experiment: MIC of antibiotics with or without PAG/AOAA; details: for MIC: Enterococcus faecium, A2373, read-out: Minimum inhibitory concentration
Experimental: (§1) E. faecalis (ATCC 29212) cultures were prepared at initial inoculums of ˜5×10^5 CFU/ml in Mueller-Hinton II Broth (cation-adjusted). Aliquots of 190 μl were dispensed to each well of a fresh set of plates, and 10 μl of an antibiotic solution (levofloxacin, meropenem, gentamicin, piperacillin, linezolid, cefepime, daptomycin, vancomycin, or chloramphemicol) were transferred to the corresponding wells in each bacterial plate (FIG. 13). For each antibiotic, the starting concentration was 2×MIC (minimum inhibitory concentration) with serial ½ dilutions. Two sets of dilutions were prepared, and to one of them 0.1 mM AOAA was added. The resulting plates were kept at 37° C. and 85% humidity for 20 hours. All nine antibiotics tested were potentiated by AOAA, with respective MICs dropped from 8-fold to 32-fold (FIG. 13).
(§2) Minimum inhibitory concentration (MIC) determination was conducted as described in Example 7, above. To assess antibiotic potentiation by AOAA and PAG, MIC was determined for nine antibiotics (levofloxacin, meropenem, gentamicin, piperacillin, linezolid, cefepime, daptomycin, vancomycin, and chloramphemicol) and four bacterial strains (E. faecium (A2373), E. faecalis ([…]), S. pneumoniae (ATCC 49619), and P. aeruginosa (PAO1)) in the presence of antibiotic alone, 1 mM PAG, 0.1 mM AOAA, or 0.5 mM PAG+0.05 mM AOAA. The smaller the MIC value, the stronger the effect of antibiotic potentiation.

E. faecalis ATCC29212 = experiment: MIC of antibiotics with or without PAG/AOAA; details: for MIC: Enterococcus faecalis, ATCC29212, read-out: Minimum inhibitory concentration
Experimental: Bacterial cultures were prepared at initial inoculums of ˜5×10^5 CFU/ml, and aliquots of 190 μl per well were dispensed. Ten μl of the indicated antibiotic solutions were added to each well. The starting concentration for each antibiotic solution was 2×MIC, with serial ½ dilutions. Two sets of dilutions were prepared, and 0.1 mM AOAA was added to one set. The plates were kept at 37° C. and 85% humidity for 20 hours.
as §1, §2

S. pneumoniae ATCC49619 = experiment: MIC of antibiotics with or without PAG/AOAA; details: for MIC: Streptococcus pneumoniae, ATCC49619, read-out: Minimum inhibitory concentration
Experimental: as §2

P. aeruginosa PAO1 = experiment: MIC of antibiotics with or without PAG/AOAA; details: for MIC: Pseudomonas aeruginosa, PAO1, read-out: Minimum inhibitory concentration
Experimental: as §2

[1] = system: E. coli ΔsseA (3MST-deficient) strain; details: Table 1; relative values of growth inhibition (negative numbers), ΔsseA vs wt E. coli
[2] = in the presence of 0.5 mM PAG + 0.05 mM AOAA

## CO/N=C(\C(=O)N[C@@H]1C(=O)N2C(C(=O)[O-])=C(C[N+]3(C)CCCC3)CS[C@H]12)c1csc(N)n1 [Cetepine, cefepime]
E. faecium A2373; antibiotic alone
  Minimum inhibitory concentration: >64 µg/mL
E. faecium A2373; in the presence of 0.1 mM AOAA
  Minimum inhibitory concentration: >64 µg/mL
E. faecium A2373; [2]
  Minimum inhibitory concentration: >64 µg/mL
E. faecium A2373; in the presence of 1 mM PAG
  Minimum inhibitory concentration: >64 µg/mL
E. faecalis ATCC29212; antibiotic alone
  Minimum inhibitory concentration: 32 µg/mL
E. faecalis ATCC29212; in the presence of 0.1 mM AOAA
  Minimum inhibitory concentration: 2 µg/mL
E. faecalis ATCC29212; [2]
  Minimum inhibitory concentration: 8 µg/mL
E. faecalis ATCC29212; in the presence of 1 mM PAG
  Minimum inhibitory concentration: 32 µg/mL
S. pneumoniae ATCC49619; antibiotic alone
  Minimum inhibitory concentration: 0.125 µg/mL
S. pneumoniae ATCC49619; in the presence of 0.1 mM AOAA
  Minimum inhibitory concentration: 0.125 µg/mL
S. pneumoniae ATCC49619; [2]
  Minimum inhibitory concentration: 0.125 µg/mL
S. pneumoniae ATCC49619; in the presence of 1 mM PAG
  Minimum inhibitory concentration: 0.125 µg/mL
P. aeruginosa PAO1; antibiotic alone
  Minimum inhibitory concentration: 2 µg/mL
P. aeruginosa PAO1; in the presence of 0.1 mM AOAA
  Minimum inhibitory concentration: 2 µg/mL
P. aeruginosa PAO1; [2]
  Minimum inhibitory concentration: 1 µg/mL
P. aeruginosa PAO1; in the presence of 1 mM PAG
  Minimum inhibitory concentration: 2 µg/mL

## CCCCCCCCCC(=O)N[C@@H](Cc1c[nH]c2ccccc12)C(=O)N[C@H](CC(N)=O)C(=O)N[C@@H](CC(=O)O)C(=O)N[C@@H]1C(=O)NCC(=O)N[C@@H](CCCN)C(=O)N[C@@H](CC(=O)O)C(=O)N[C@H](C)C(=O)N[C@@H](CC(=O)O)C(=O)NCC(=O)N[C@H](CO)C(=O)N[C@@H]([C@H](C)CC(=O)O)C(=O)N[C@@H](CC(=O)c2ccccc2N)C(=O)O[C@@H]1C [Daptomycin, daptomycin]
E. faecium A2373; antibiotic alone
  MIC: 4 µg/mL
E. faecium A2373; in the presence of 0.1 mM AOAA
  Minimum inhibitory concentration: ≦1 μg/ml
E. faecium A2373; [2]
  Minimum inhibitory concentration: 4 µg/mL
E. faecium A2373; in the presence of 1 mM PAG
  Minimum inhibitory concentration: 2 µg/mL
E. faecalis ATCC29212; antibiotic alone
  MIC: 2 µg/mL
E. faecalis ATCC29212; in the presence of 0.1 mM AOAA
  Minimum inhibitory concentration: ≦0.06 μg/ml
E. faecalis ATCC29212; [2]
  Minimum inhibitory concentration: 1 µg/mL
E. faecalis ATCC29212; in the presence of 1 mM PAG
  Minimum inhibitory concentration: 2 µg/mL
S. pneumoniae ATCC49619; antibiotic alone
  MIC: 0.125 µg/mL
S. pneumoniae ATCC49619; in the presence of 0.1 mM AOAA
  Minimum inhibitory concentration: 0.063 µg/mL
S. pneumoniae ATCC49619; [2]
  Minimum inhibitory concentration: 0.125 µg/mL
S. pneumoniae ATCC49619; in the presence of 1 mM PAG
  Minimum inhibitory concentration: 0.125 µg/mL
P. aeruginosa PAO1; antibiotic alone
  MIC: > 64 µg/mL
P. aeruginosa PAO1; in the presence of 0.1 mM AOAA
  Minimum inhibitory concentration: >64 µg/mL
P. aeruginosa PAO1; [2]
  Minimum inhibitory concentration: >64 µg/mL
P. aeruginosa PAO1; in the presence of 1 mM PAG
  Minimum inhibitory concentration: >64 µg/mL

## C[C@H]1COc2c(N3CCN(C)CC3)c(F)cc3c(=O)c(C(=O)O)cn1c23 [Levoflaxacin, levofloxacin]
E. faecium A2373; antibiotic alone
  MIC: 2 µg/mL
E. faecium A2373; in the presence of 0.1 mM AOAA
  Minimum inhibitory concentration: 2 µg/mL
E. faecium A2373; [2]
  Minimum inhibitory concentration: 2 µg/mL
E. faecium A2373; in the presence of 1 mM PAG
  Minimum inhibitory concentration: 2 µg/mL
E. faecalis ATCC29212; antibiotic alone
  MIC: 1 µg/mL
E. faecalis ATCC29212; in the presence of 0.1 mM AOAA
  Minimum inhibitory concentration: 0.125 µg/mL
E. faecalis ATCC29212; [2]
  Minimum inhibitory concentration: 0.5 µg/mL
E. faecalis ATCC29212; in the presence of 1 mM PAG
  Minimum inhibitory concentration: 1 µg/mL
S. pneumoniae ATCC49619; antibiotic alone
  MIC: 2 µg/mL
S. pneumoniae ATCC49619; in the presence of 0.1 mM AOAA
  Minimum inhibitory concentration: 0.5 µg/mL
S. pneumoniae ATCC49619; [2]
  Minimum inhibitory concentration: 0.5 µg/mL
S. pneumoniae ATCC49619; in the presence of 1 mM PAG
  Minimum inhibitory concentration: 1 µg/mL
P. aeruginosa PAO1; antibiotic alone
  MIC: 0.5 µg/mL
P. aeruginosa PAO1; in the presence of 0.1 mM AOAA
  Minimum inhibitory concentration: 0.5 µg/mL
P. aeruginosa PAO1; [2]
  Minimum inhibitory concentration: 0.5 µg/mL
P. aeruginosa PAO1; in the presence of 1 mM PAG
  Minimum inhibitory concentration: 0.5 µg/mL

## CC(=O)NC[C@H]1CN(c2ccc(N3CCOCC3)c(F)c2)C(=O)O1 [Linezold, linezolid]
E. faecium A2373; antibiotic alone
  MIC: 4 µg/mL
E. faecium A2373; in the presence of 0.1 mM AOAA
  Minimum inhibitory concentration: 2 µg/mL
E. faecium A2373; [2]
  Minimum inhibitory concentration: 4 µg/mL
E. faecium A2373; in the presence of 1 mM PAG
  Minimum inhibitory concentration: 4 µg/mL
E. faecalis ATCC29212; antibiotic alone
  MIC: 4 µg/mL
E. faecalis ATCC29212; in the presence of 0.1 mM AOAA
  Minimum inhibitory concentration: 0.25 µg/mL
E. faecalis ATCC29212; [2]
  Minimum inhibitory concentration: 2 µg/mL
E. faecalis ATCC29212; in the presence of 1 mM PAG
  Minimum inhibitory concentration: 4 µg/mL
S. pneumoniae ATCC49619; antibiotic alone
  MIC: 2 µg/mL
S. pneumoniae ATCC49619; in the presence of 0.1 mM AOAA
  Minimum inhibitory concentration: 0.5 µg/mL
S. pneumoniae ATCC49619; [2]
  Minimum inhibitory concentration: 1 µg/mL
S. pneumoniae ATCC49619; in the presence of 1 mM PAG
  Minimum inhibitory concentration: 2 µg/mL
P. aeruginosa PAO1; antibiotic alone
  MIC: > 64 µg/mL
P. aeruginosa PAO1; in the presence of 0.1 mM AOAA
  Minimum inhibitory concentration: >64 µg/mL
P. aeruginosa PAO1; [2]
  Minimum inhibitory concentration: >64 µg/mL
P. aeruginosa PAO1; in the presence of 1 mM PAG
  Minimum inhibitory concentration: >64 µg/mL

## Cc1onc(-c2ccccc2)c1C(=O)N[C@@H]1C(=O)N2[C@@H]1SC(C)(C)[C@@H]2C(=O)O [Oxacillin]
[1]
  ΔsseA inhibition of growth: −346

## CCn1cc(C(=O)O)c(=O)c2cc3c(cc21)OCO3 [Oxolinic acid]
[1]
  ΔsseA inhibition of growth: −117

## CC1(C)S[C@@H]2[C@H](NC(=O)Cc3ccccc3)C(=O)N2[C@H]1C(=O)O [Penicillin G]
[1]
  ΔsseA inhibition of growth: −186

## Oc1c(Cl)c(Cl)c(Cl)c(Cl)c1Cl [Pentachlorophenol]
[1]
  ΔsseA inhibition of growth: −287

## CC(Oc1ccccc1)C(=O)N[C@@H]1C(=O)N2[C@@H]1SC(C)(C)[C@@H]2C(=O)O (stereo partly shown) [Phenethicillin]
[1]
  ΔsseA inhibition of growth: −216

## O=S(=O)(F)Cc1ccccc1 [Phenyl-methylsulfonyl-fluoride (PMSF), Phenyl-methylsulfonyl-fluoride]
[1]
  ΔsseA inhibition of growth: −194

## OC(CCN1CCCCC1)(c1ccccc1)c1ccccc1 [Pridinol]
[1]
  ΔsseA inhibition of growth: −206

## Nc1ccc2cc3ccc(N)cc3nc2c1 [Proflavine]
[1]
  ΔsseA inhibition of growth: −93

## CC(CN1c2ccccc2Sc2ccccc21)N(C)C (stereo not shown) [Promethazine]
[1]
  ΔsseA inhibition of growth: −262

## CC(C)NCC(O)COc1cccc2ccccc12 (stereo not shown) [Propranolol]
[1]
  ΔsseA inhibition of growth: −263

## CO[C@H]1/C=C/O[C@@]2(C)Oc3c(C)c([O-])c4c(O)c(cc(O)c4c3C2=O)NC(=O)/C(C)=C\C=C\[C@H](C)[C@H](O)[C@@H](C)[C@@H](O)[C@@H](C)[C@H](OC(C)=O)[C@@H]1C.[Na+] [Rifamycin SV]
[1]
  ΔsseA inhibition of growth: −352

## N.N.N.N.N.N.N.N.N.N.N.N.N.N.[Cl-].[Cl-].[Cl-].[Cl-].[Cl-].[Cl-].[O-2].[O-2].[Ru+3].[Ru+3].[Ru+4] [Ruthenium red]
[1]
  ΔsseA inhibition of growth: −268

## CCCCCCCC(=O)[O-].[Na+] [Sodium caprylate]
[1]
  ΔsseA inhibition of growth: −346

## N#CO [Sodium cyanate]
[1]
  ΔsseA inhibition of growth: −238

## [H]/N=C(/N)N[C@H]1[C@H](O)[C@@H](O)[C@H](O[C@@H]2O[C@@H](C)[C@](O)(C=O)[C@H]2O[C@@H]2O[C@@H](CO)[C@H](O)[C@@H](O)[C@@H]2NC)[C@@H](N/C(N)=N\[H])[C@@H]1O [Streptomycin]
[1]
  ΔsseA inhibition of growth: −421

## c1ccc(-c2nn(-c3ccccc3)[n+](-c3cccc4ccccc34)n2)cc1 [Tetrazolium violet]
[1]
  ΔsseA inhibition of growth: −293

## CSc1ccc2c(c1)N(CCC1CCCCN1C)c1ccccc1S2 (stereo not shown) [Thioridazine]
[1]
  ΔsseA inhibition of growth: −313

## CCS(=O)(=O)CCn1c([N+](=O)[O-])cnc1C [Tinidazole]
[1]
  ΔsseA inhibition of growth: −223

## CN1CCN(CCCN2c3ccccc3Sc3ccc(C(F)(F)F)cc32)CC1 [Trifluoperazine]
[1]
  ΔsseA inhibition of growth: −372

## COc1cc(Cc2cnc(N)nc2N)cc(OC)c1OC [Trimethoprim]
[1]
  ΔsseA inhibition of growth: −212

## CO[C@H]1C[C@H](O[C@H]2[C@H](C)[C@@H](O[C@@H]3O[C@H](C)C[C@H](N(C)C)[C@H]3OC(C)=O)[C@@H](C)C[C@@]3(CO3)C(=O)[C@H](C)[C@@H](OC(C)=O)[C@@H](C)[C@@H](C)OC(=O)[C@@H]2C)O[C@@H](C)[C@@H]1OC(C)=O [Troleandomycin]
[1]
  ΔsseA inhibition of growth: −203

## CC[C@H]1OC(=O)C[C@@H](O)[C@H](C)[C@@H](O[C@@H]2O[C@H](C)[C@@H](O[C@H]3C[C@@](C)(O)[C@@H](O)[C@H](C)O3)[C@H](N(C)C)[C@H]2O)[C@@H](CC=O)C[C@@H](C)C(=O)/C=C/C(C)=C/[C@@H]1CO[C@@H]1O[C@H](C)[C@@H](O)[C@@H](OC)[C@H]1OC [Tylosin]
[1]
  ΔsseA inhibition of growth: −520

## Acriflavine
[1]
  ΔsseA inhibition of growth: −295

## Colistin
[1]
  ΔsseA inhibition of growth: −102

## Poly-L-lysine
[1]
  ΔsseA inhibition of growth: −377

## Polymyxin B
[1]
  ΔsseA inhibition of growth: −231

## Spiramycin
[1]
  ΔsseA inhibition of growth: −235
